Entries after “also recorded” stand apart in the source; their conditions may differ. Like-named read-outs stand apart in the source and are kept apart here.
Legend:
[1] = target: T1, N-biotinyl-Aβ(1–42) (bioAβ42) oligomer assembly (Homo sapiens, UniProt P05067); test: biochemical; details: for bioAβ42 oligomer assembly inhibition (in words): 1.56 to 50 μM, alone or in 1:1 / 1:1:1 mixtures; for EC50: concentration range 50 to 1.56 μM, duplicate, n = 3 independent experiments, ± SDEV
T1 construct: N-biotinyl Aβ(1–42) (bioAβ42) was purchased from Anaspec; purchased Anaspec (Fremont, CA, USA) AS-23523-05
Experimental: We first examined the effect of the synthesized 1,3- and 1,4-chalcone-donepezil hybrids 15a–15f and 16a–16f on the assembly of N-biotinyl-Aβ(1–42) (bioAβ42) monomers into oligomers. We quantified the assembly of bioAβ42 into soluble oligomers by using an ELISA assay in which the soluble oligomers were captured on NeutrAvidin^TM-coated ELISA plates and detected with streptavidin-horseradish peroxidase and colorimetric readout (Figure 3).
The plates were then stored in their blocked form at 4 °C prior to use for the oligomer assembly and dissociation assays.
The assembly of bioAβ42 into soluble oligomers was quantified with an ELISA assay in which the soluble oligomers were captured with the NeutrAvidin^TM coating the ELISA plates. The bound oligomers were detected with streptavidin-horseradish peroxidase (SA-HRP). […] Below, please find the details of the three steps (Steps 1–3) used for the oligomer assembly assay.
Step 1: Preparation of monomeric bioAβ42. For a low background, it was essential to rigorously pretreat the bioAβ42 peptide to convert (disaggregate) the multimeric species that form upon storage in the solid state, or even frozen in 1,1,1,3,3,3-hexafluoroisopropanol (HFIP) to monomers. The required amount of stock bioAβ42 peptide (0.5 mg dissolved at 1 mg/mL in HFIP) was pipetted into a polypropylene microfuge tube, dried to a thin film under a gentle air or N2 stream, and then disaggregated for 10 min at rt in neat trifluoroacetic acid (TFA). After removal of the TFA by drying with an air or N2 stream, DMSO was added to produce a 2.3 μg/mL (50×) stock solution.
Step 2: Assembly of bioAβ42 oligomers. 2 μL of disaggregated monomeric 50× bioAβ42 peptide in DMSO (prepared in Step 1) was pipetted into the bottom of each well of a polypropylene 96-well plate. […] The 96-well plate was sealed and incubated at rt for 30 min without shaking. The bioAβ42 oligomer assembly was stopped by adding 50 μL of 0.3% Tween 20 v/v in distilled H2O.
Step 3: Measurement of bioAβ42 oligomers. […] The 96-well plate was then sealed and incubated for 2 h while shaking at 150 rpm at rt. […] The plate was sealed and incubated for 1 h while shaking at 150 rpm at rt. The plate was washed as previously described, and 100 μL/well of HRP substrate (i.e., 1 mM:0.07 mM/tetramethylbenzidine:H2O2) in 0.2 M citrate buffer, pH 4.0 was added. The plate was incubated at rt for 5 to 10 min and the reaction was stopped by the addition of 100 μL/well of 1% v/v H2SO4. The absorbance of each well was read at 450 nm with a BioTek HT Synergy plate reader.
(§1) The effects of various chalcones, donepezil, donepezil analogue, and 1,3-chalcone-donepezil hybrids were tested for their ability to inhibit the bioAβ42 oligomer assembly and dissociation either alone or in combination with each other. The experiments were performed as described in the biotinyl-Aβ(1–42) (bioAβ42) oligomer assembly and dissociation assays section.

[2] = target: T2, preformed bioAβ42 oligomers (Homo sapiens, UniProt P05067); test: bioAβ42 oligomer dissociation assay (NeutrAvidin ELISA); type: biochemical; details: 0.01 to 50 μM; ~18 h; alone or in 1:1 / 1:1:1 mixtures
T2 construct: N-biotinyl Aβ(1–42) (bioAβ42) was purchased from Anaspec; purchased Anaspec (Fremont, CA, USA) AS-23523-05
Experimental: Dissociation of preformed oligomers of bioAβ42 was measured by pretreating biotinylated oligomers with solvent controls or compounds for a period of time, capturing them with NeutrAvidin^TM on ELISA plates, and detecting the remaining bound oligomers with SA-HRP [77] as described above. Below, please find the details of the two steps (Steps 1 and 2) used for the oligomer dissociation assay.
Step 1: Preformed bioAβ42 oligomers (sufficient for 400 wells). In total, 1 μg of bioAβ42 peptide (1 mg/mL dissolved in HFIP) was pipetted into 20 μL of HFIP in a polypropylene microfuge tube, and dried to a thin film under a gentle air or N2 stream. The film was dissolved in 250 μL of DMSO and vortexed. […] After incubation at rt for 1 h with intermittent vortexing, 0.375 mL of 100 mM Tween 20 (10% v/v) in distilled H2O was added to make the final Tween 20 concentration 0.3% v/v. The preformed oligomers were mixed by inversion and aliquoted for storage at −75 °C. Note: Multiple freeze-thaw cycles should be avoided.
Step 2: Oligomer dissociation assay. […] Then, 25 μL of the preformed bio42 oligomers adjusted to 0.6% v/v Tween 20 was pipetted into each well of a polypropylene 96-well plate. […] The plates were sealed and shaken at 150 rpm overnight at rt. After 18 h of incubation, the plates were centrifuged at 1000× g for 10 min and a 100-μL aliquot was transferred from each well into a well of an NA-coated ELISA plate that had been blocked with Tween 20. The oligomer content of that aliquot was measured as described for the bioAβ42 oligomer assembly assay.
as §1

[3] = target: EeAChE (AChE from Electrophorus electricus) (Electrophorus electricus, UniProt O42275); test: biochemical; details: for IC50: Ellman's method, pH 8.0, 25 °C, triplicate, ± SDEV, read-out: Inhibition (IC50) of EeAChE; for selectivity index (SI): based on IC50 values against EeAChE and EfBChE
Experimental: (§2) The ChE inhibition assays were performed as previously described. The 1,3- and 1,4-chalcone-donepezil hybrids (0.1 nM to 100 μM) were dissolved in sodium phosphate buffer ((100 μL), 0.1 M, pH 8.0). […] All assays were performed in triplicate. The data was plotted as a sigmoidal curve and IC50 values were calculated using SigmaPlot 14.0 (Systat Software, San Jose, CA, USA).

[4] = target: EfBChE (BChE from Equus ferus) (Equus caballus, UniProt P81908); test: biochemical; type: biochemical; details: for IC50: Ellman's method, pH 8.0, 25 °C, triplicate, ± SDEV, read-out: Inhibition (IC50) of EfBChE; for inhibition of EfBChE better than that of EeAChE: from IC50 values
Experimental: as §2

F40 = Aβ(1–40) fibrils = target: T3, F40 = Aβ(1–40) fibrils (Homo sapiens, UniProt P05067); test: 3H-PIB binding competition/titration, Aβ(1–40) fibrils; details: compounds at 10 μM (titration 10 to 0.03 μM); 1.2 nM 3H-PIB
T3 construct: lyophilized NH4OH-treated Aβ(1–40) (cat # A-1157-02); purchased rPeptide (Watkinsville, GA, USA) A-1157-02
Experimental: (§3) Prior to being transferred to screw-top polypropylene vials and being stored at −75 °C, these 1 mg/mL fibril suspensions were further diluted with an equal volume of the buffer solution.
(§4) The plates were sealed and incubated for 3 h at 22 °C, without shaking, and transferred to a 96-well Millipore Multiscreen HTS Hi Flow FB (GF/B) filter plate, and filtered with a multi-well plate vacuum manifold (Millipore Corporation, Bedford, MA, USA). […] Specific binding of ^3H-PIB was determined by subtracting the non-specific binding determined in the presence of 1 μM BTA-1.
(§5) The titration of compounds with ^3H-PIB bound to Aβ(1–40) and Aβ(1–42) fibrils and AD brain extract (ADPBC) were performed to further determine the competition of our compounds for the ^3H-PIB binding site of the AD brain. The experiments were performed as described in the ^3H-PIB binding assays of Section 3.4.3 with the use of a concentration range of 10 to 0.03 μM for the compounds tested.

F42 = Aβ(1–42) fibrils = target: T4, F42 = Aβ(1–42) fibrils (Homo sapiens, UniProt P05067); test: 3H-PIB binding competition/titration, Aβ(1–42) fibrils; details: compounds at 10 μM (titration 10 to 0.03 μM); 1.2 nM 3H-PIB
T4 construct: Aβ(1–42) (cat # A-1167-02) purchased from rPeptide; purchased rPeptide (Watkinsville, GA, USA) A-1167-02
Experimental: as §3, §4, §5

[5] = test system: ADPBC (Alzheimer's disease PIB binding complex); test: 3H-PIB binding competition/titration, ADPBC; design: species or system Human; details: compounds at 10 μM (titration 10 to 0.03 μM); 1.2 nM 3H-PIB
Experimental: Human AD brain frontal cortical tissue (from the Sanders-Brown Center on Aging Alzheimer’s Disease Center Brain Bank at the University of Kentucky) was processed as follows.
as §4, §5

[6] = read-out: EC50 against bioAβ42 oligomer assembly

Sequence of EfBChE (BChE from Equus ferus) (P81908 whole entry): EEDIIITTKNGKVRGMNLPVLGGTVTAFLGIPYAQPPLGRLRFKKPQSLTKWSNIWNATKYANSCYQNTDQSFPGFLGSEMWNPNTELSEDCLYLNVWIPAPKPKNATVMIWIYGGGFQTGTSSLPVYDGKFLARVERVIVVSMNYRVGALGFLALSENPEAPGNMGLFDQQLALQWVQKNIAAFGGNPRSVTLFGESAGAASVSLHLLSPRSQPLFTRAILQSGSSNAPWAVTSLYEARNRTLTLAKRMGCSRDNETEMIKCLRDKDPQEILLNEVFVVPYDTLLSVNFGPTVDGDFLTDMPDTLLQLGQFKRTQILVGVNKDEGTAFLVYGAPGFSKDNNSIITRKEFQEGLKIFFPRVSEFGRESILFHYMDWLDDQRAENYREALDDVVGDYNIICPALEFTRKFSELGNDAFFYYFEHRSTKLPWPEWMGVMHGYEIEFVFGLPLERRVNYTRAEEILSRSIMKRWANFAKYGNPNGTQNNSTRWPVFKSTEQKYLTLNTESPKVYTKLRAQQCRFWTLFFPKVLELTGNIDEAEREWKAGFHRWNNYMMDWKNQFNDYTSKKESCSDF
Sequence of EeAChE (AChE from Electrophorus electricus) (O42275 24-633): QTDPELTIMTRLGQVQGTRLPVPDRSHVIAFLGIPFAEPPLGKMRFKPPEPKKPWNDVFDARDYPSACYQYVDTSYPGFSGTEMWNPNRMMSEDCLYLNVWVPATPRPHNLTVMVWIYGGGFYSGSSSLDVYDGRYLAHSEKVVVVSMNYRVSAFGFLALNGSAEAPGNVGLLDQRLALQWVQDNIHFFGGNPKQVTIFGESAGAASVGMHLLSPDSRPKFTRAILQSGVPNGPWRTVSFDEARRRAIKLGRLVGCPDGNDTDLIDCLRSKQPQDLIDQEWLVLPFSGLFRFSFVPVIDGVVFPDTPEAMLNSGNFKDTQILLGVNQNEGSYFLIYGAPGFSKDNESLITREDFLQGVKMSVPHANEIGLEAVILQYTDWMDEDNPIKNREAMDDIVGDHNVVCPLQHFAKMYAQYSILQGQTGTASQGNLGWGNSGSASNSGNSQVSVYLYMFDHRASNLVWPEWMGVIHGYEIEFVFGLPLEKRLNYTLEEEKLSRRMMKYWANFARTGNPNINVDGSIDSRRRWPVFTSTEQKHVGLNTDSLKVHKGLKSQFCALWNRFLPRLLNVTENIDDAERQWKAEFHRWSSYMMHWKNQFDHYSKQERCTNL
T2 sequence (P05067 672-713): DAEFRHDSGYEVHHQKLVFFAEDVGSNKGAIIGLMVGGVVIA
T1 sequence (P05067 672-713): as above
T3 sequence (P05067 672-711): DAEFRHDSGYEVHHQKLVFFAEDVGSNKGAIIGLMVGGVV
T4 sequence (P05067 672-713): as the sequence (P05067 672-713) above

| SMILES | bioAβ42 oligomer assembly inhibition (in words) [1] | dissociation of preformed bioAβ42 oligomers (in words) [2] | IC50 [3] | selectivity index (SI) [3] | IC50 [4] | inhibition of EfBChE better than that of EeAChE [4] | displacement of 3H-PIB from F40 (in words) (F40 = Aβ(1–40) fibrils) | displacement of 3H-PIB from F42 (in words) (F42 = Aβ(1–42) fibrils) | displacement of 3H-PIB from ADPBC (in words) [5] | EC50 [1, 6] | EC50 ([1]; EC50 against bioAβ42 oligomer assembly) |
| --- | --- | --- | --- | --- | --- | --- | --- | --- | --- | --- | --- |
| CN(C)c1ccc(/C=C/C(=O)c2cccc(OCCO)c2)cc1 [compound 17, (E)-3-(4-(Dimethylamino)Phenyl)-1-(3-(2-Hydroxyethoxy)Phenyl)Prop-2-En-1-One] | did not inhibit bioAβ42 assembly | did not dissociate the preformed oligomers | – | – | – | – | – | – | – | – | – |
| COc1cc2c(cc1OCCCCOc1cccc(C(=O)/C=C/c3ccc(N(C)C)cc3)c1)C(=O)C(CC1CCN(Cc3ccccc3)CC1)C2 (stereo not shown) [15b, (E)-2-((1-Benzylpiperidin-4-Yl)Methyl)-6-(4-(3-(3-(4-(Dimethylamino)Phenyl)Acryloyl)Phenoxy)Butoxy)-5-Methoxy-2,3-Dihydro-1H-Inden-1-One] | better inhibition of bioAβ42 oligomer assembly | – | 0.65 ± 0.14 µM | 0.05 | 0.03 ± 0.01 µM | 22 fold | better binding to F40, F42, and ADPBC than 15c, 15d, 15e, and 15f | better binding to F40, F42, and ADPBC than 15c, 15d, 15e, and 15f | better binding to F40, F42, and ADPBC than 15c, 15d, 15e, and 15f | 4.1 ± 0.17 µM | – |
| COc1cc2c(cc1OCCO)C(=O)C(CC1CCN(Cc3ccccc3)CC1)C2 (stereo not shown) [compound 20, 2-((1-Benzylpiperidin-4-Yl)Methyl)-6-(2-Hydroxyethoxy)-5-Methoxy-2,3-Dihydro-1H-Inden-1-One] | did not inhibit bioAβ42 assembly | did not dissociate the preformed oligomers | – | – | – | – | – | – | – | – | – |
| COc1cc2c(cc1OCCOc1cccc(C(=O)/C=C/c3ccc(N(C)C)cc3)c1)C(=O)C(CC1CCN(Cc3ccccc3)CC1)C2 (stereo not shown) [15a, (E)-2-((1-Benzylpiperidin-4-Yl)Methyl)-6-(2-(3-(3-(4-(Dimethylamino)Phenyl)Acryloyl)Phenoxy)Ethoxy)-5-Methoxy-2,3-Dihydro-1H-Inden-1-One] | successful in preventing the self-assembly of bioAβ42; also recorded: better inhibition of bioAβ42 oligomer assembly | – | 1.02 ± 0.33 µM | 0.02 | 0.02 ± 0.002 µM | 51 fold | better binding to F40, F42, and ADPBC than 15c, 15d, 15e, and 15f | better binding to F40, F42, and ADPBC than 15c, 15d, 15e, and 15f | better binding to F40, F42, and ADPBC than 15c, 15d, 15e, and 15f | – | 4.83 ± 0.47 µM |
| CN(C)c1ccc(/C=C/C(=O)c2cccc(O)c2)cc1 [compound 3, (E)-3-(4-(Dimethylamino)Phenyl)-1-(3-Hydroxyphenyl)Prop-2-En-1-One] | did not inhibit bioAβ42 assembly | did not dissociate the preformed oligomers | – | – | – | – | – | – | – | > 50 µM | – |
